Source: PubChem BioAssay (NCI)
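Briefly, cells in 96-well plates were exposed to five compound concentrations for 48 h, and endpoints were estimated by linear interpolation. At the TGI there is no net growth.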

Legend:
Assay in all cases: NCI-60 cell line screen, 48 h
SW-620 colon = test system: SW-620 colon
SN12C renal = test system: SN12C renal
UACC-257 melanoma = test system: UACC-257 melanoma
HL-60(TB) leukemia = test system: HL-60(TB) leukemia
T-47D breast = test system: T-47D breast
PC-3 prostate = test system: PC-3 prostate
HS 578T breast = test system: HS 578T breast
EKVX NSCLC = test system: EKVX NSCLC
MDA-MB-435 = test system: MDA-MB-435
HCT-15 colon = test system: HCT-15 colon
MALME-3M melanoma = test system: MALME-3M melanoma
NCI-H23 lung = test system: NCI-H23 lung
KM12 colon = test system: KM12 colon
UO-31 renal = test system: UO-31 renal
SF-268 CNS = test system: SF-268 CNS
HCT-116 colon = test system: HCT-116 colon
U251 CNS = test system: U251 CNS
COLO 205 colon = test system: COLO 205 colon
MCF7 breast = test system: MCF7 breast
DU-145 prostate = test system: DU-145 prostate
NCI/ADR-RES ovarian = test system: NCI/ADR-RES ovarian
HT29 colon = test system: HT29 colon
MDA-MB-231 breast = test system: MDA-MB-231 breast
RXF 393 renal = test system: RXF 393 renal
TK-10 renal = test system: TK-10 renal
OVCAR-5 ovarian = test system: OVCAR-5 ovarian
BT-549 breast = test system: BT-549 breast
HOP-62 NSCLC = test system: HOP-62 NSCLC
SF-295 CNS = test system: SF-295 CNS
OVCAR-4 ovarian = test system: OVCAR-4 ovarian
SR leukemia = test system: SR leukemia
OVCAR-8 ovarian = test system: OVCAR-8 ovarian
LOX IMVI melanoma = test system: LOX IMVI melanoma
M14 melanoma = test system: M14 melanoma
SK-MEL-5 melanoma = test system: SK-MEL-5 melanoma
IGROV1 ovarian = test system: IGROV1 ovarian
ACHN renal = test system: ACHN renal
HOP-92 NSCLC = test system: HOP-92 NSCLC
SK-MEL-2 melanoma = test system: SK-MEL-2 melanoma
A498 renal = test system: A498 renal
NCI-H522 lung = test system: NCI-H522 lung
NCI-H226 lung = test system: NCI-H226 lung
SK-MEL-28 melanoma = test system: SK-MEL-28 melanoma
MOLT-4 leukemia = test system: MOLT-4 leukemia
786-0 renal = test system: 786-0 renal
OVCAR-3 ovarian = test system: OVCAR-3 ovarian
SNB-75 CNS = test system: SNB-75 CNS
CAKI-1 renal = test system: CAKI-1 renal
A549 NSCLC = test system: A549 NSCLC
SNB-19 CNS = test system: SNB-19 CNS
CCRF-CEM leukemia = test system: CCRF-CEM leukemia
RPMI-8226 leukemia = test system: RPMI-8226 leukemia
SK-OV-3 ovarian = test system: SK-OV-3 ovarian
K-562 leukemia = test system: K-562 leukemia

## CC(=O)c1cc(C)n2c1CS[C@@H]2c1ccccc1
SW-620 colon
  TGI: > 100 µM
SN12C renal
  TGI: > 100 µM
UACC-257 melanoma
  TGI: > 100 µM
HL-60(TB) leukemia
  TGI: > 100 µM
T-47D breast
  TGI: > 100 µM
PC-3 prostate
  TGI: > 100 µM
HS 578T breast
  TGI: > 100 µM
EKVX NSCLC
  TGI: > 100 µM
MDA-MB-435
  TGI: > 100 µM
HCT-15 colon
  TGI: > 100 µM
MALME-3M melanoma
  TGI: > 100 µM
NCI-H23 lung
  TGI: > 100 µM
KM12 colon
  TGI: > 100 µM
UO-31 renal
  TGI: > 100 µM
SF-268 CNS
  TGI: > 100 µM
HCT-116 colon
  TGI: > 100 µM
U251 CNS
  TGI: 92.7 µM
COLO 205 colon
  TGI: 29 µM
MCF7 breast
  TGI: > 100 µM
DU-145 prostate
  TGI: 93.6 µM
NCI/ADR-RES ovarian
  TGI: > 100 µM
HT29 colon
  TGI: > 100 µM
MDA-MB-231 breast
  TGI: > 100 µM
RXF 393 renal
  TGI: 91.6 µM
TK-10 renal
  TGI: > 100 µM
OVCAR-5 ovarian
  TGI: > 100 µM
BT-549 breast
  TGI: > 100 µM
HOP-62 NSCLC
  TGI: > 100 µM
SF-295 CNS
  TGI: > 100 µM
OVCAR-4 ovarian
  TGI: > 100 µM
SR leukemia
  TGI: > 100 µM
OVCAR-8 ovarian
  TGI: > 100 µM
LOX IMVI melanoma
  TGI: > 100 µM
M14 melanoma
  TGI: > 100 µM
SK-MEL-5 melanoma
  TGI: > 100 µM
IGROV1 ovarian
  TGI: > 100 µM
ACHN renal
  TGI: > 100 µM
HOP-92 NSCLC
  TGI: > 100 µM
SK-MEL-2 melanoma
  TGI: > 100 µM
A498 renal
  TGI: > 100 µM
NCI-H522 lung
  TGI: > 100 µM
NCI-H226 lung
  TGI: > 100 µM
SK-MEL-28 melanoma
  TGI: > 100 µM
MOLT-4 leukemia
  TGI: 96.5 µM
786-0 renal
  TGI: 50.5 µM
OVCAR-3 ovarian
  TGI: > 100 µM
SNB-75 CNS
  TGI: > 100 µM
CAKI-1 renal
  TGI: > 100 µM
A549 NSCLC
  TGI: > 100 µM
SNB-19 CNS
  TGI: > 100 µM
CCRF-CEM leukemia
  TGI: 60.9 µM
RPMI-8226 leukemia
  TGI: 44 µM
SK-OV-3 ovarian
  TGI: > 100 µM
K-562 leukemia
  TGI: > 100 µM
